One test deals with T1, HDAC6 (Homo sapiens, UniProt Q9UBN7).
T1 sequence (Q9UBN7 1-1215): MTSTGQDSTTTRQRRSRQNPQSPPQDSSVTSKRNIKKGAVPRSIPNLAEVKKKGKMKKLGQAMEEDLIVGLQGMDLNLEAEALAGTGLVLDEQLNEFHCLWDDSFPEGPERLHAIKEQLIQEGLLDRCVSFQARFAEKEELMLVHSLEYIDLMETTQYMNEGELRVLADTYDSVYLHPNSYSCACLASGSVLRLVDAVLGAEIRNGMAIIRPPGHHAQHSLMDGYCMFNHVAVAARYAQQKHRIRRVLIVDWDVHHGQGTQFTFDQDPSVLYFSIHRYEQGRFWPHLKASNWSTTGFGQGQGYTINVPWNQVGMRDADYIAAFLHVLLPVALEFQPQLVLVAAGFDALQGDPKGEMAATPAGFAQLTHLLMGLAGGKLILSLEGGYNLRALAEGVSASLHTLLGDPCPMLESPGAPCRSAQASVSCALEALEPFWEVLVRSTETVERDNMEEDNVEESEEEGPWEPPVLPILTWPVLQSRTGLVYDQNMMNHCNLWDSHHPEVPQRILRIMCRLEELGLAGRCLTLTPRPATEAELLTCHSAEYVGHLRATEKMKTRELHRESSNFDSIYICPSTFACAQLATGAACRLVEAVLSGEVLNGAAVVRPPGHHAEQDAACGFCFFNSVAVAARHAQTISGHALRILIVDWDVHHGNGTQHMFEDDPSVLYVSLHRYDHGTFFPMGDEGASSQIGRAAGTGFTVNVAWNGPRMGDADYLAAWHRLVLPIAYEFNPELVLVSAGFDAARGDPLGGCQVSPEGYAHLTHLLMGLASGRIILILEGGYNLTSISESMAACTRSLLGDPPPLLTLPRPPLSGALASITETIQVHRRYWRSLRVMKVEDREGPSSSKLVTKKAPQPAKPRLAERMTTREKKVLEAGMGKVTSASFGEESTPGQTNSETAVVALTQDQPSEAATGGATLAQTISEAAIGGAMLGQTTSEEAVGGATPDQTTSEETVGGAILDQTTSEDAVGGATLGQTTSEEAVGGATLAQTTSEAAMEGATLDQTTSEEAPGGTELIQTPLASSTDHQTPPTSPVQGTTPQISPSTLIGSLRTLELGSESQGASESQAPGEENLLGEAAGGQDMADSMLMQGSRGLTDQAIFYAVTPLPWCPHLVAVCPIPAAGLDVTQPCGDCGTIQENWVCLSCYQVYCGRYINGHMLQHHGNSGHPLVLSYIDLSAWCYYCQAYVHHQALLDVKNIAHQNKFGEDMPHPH
As to the kind of experiment: Fluorogenic HDAC inhibition assay, purified enzyme.

The target of the next test is HDAC3 (Homo sapiens, UniProt O15379). As to the kind of experiment: Fluorogenic HDAC inhibition assay, purified enzyme.
Chain of HDAC3 (O15379 whole entry, species assumed): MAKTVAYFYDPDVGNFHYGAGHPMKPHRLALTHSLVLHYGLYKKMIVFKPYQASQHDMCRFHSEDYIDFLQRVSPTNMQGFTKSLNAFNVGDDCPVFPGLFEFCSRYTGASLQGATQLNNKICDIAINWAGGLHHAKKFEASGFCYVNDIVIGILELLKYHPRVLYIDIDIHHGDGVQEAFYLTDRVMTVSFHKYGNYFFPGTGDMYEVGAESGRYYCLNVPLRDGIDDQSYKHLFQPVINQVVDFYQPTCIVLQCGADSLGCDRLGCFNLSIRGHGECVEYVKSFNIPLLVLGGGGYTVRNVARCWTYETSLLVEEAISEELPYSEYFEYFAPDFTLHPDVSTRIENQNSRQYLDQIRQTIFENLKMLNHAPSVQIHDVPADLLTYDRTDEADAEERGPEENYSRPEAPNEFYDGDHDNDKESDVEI
Chain of HDAC3 (Q9Y618 395-489 partner limits assumed, species assumed): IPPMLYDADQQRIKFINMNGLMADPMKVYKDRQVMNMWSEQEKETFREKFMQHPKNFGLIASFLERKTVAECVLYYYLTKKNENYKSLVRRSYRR
The next test deals with SCC4 cells. As to the kind of experiment: MTS cell proliferation assay. Format: cell-based, human. To be noted: vitamin D resistant SCC4 cells, Figures 7c, 8 and 9. The text has this: Dose-dependent effects of compounds on cell cycle progression was monitored using a CellTiter 96 Aqueous Non-Radioactive Cell Proliferation Assay Kit (Promega). The assay composed of solutions of a novel tetrazolium compound (MTS) and an electron coupling reagent (phenazine methosulfate; PMS). MTS is reduced by metabolically active cells into a soluble formazan product that absorbs at 490nm. The quantity of formazan product absorbing at 490nm is directly proportional to the number of living cells.
On the technique in general: Tetrazolium dyes change colour on reduction, which living cells bring about.

A further test has as its target T2, VDR (Homo sapiens, UniProt P11473).
T2 construct: endogenous in cells; host or cells: SCC25 human head and neck squamous carcinoma cells
T2 sequence (P11473 1-427): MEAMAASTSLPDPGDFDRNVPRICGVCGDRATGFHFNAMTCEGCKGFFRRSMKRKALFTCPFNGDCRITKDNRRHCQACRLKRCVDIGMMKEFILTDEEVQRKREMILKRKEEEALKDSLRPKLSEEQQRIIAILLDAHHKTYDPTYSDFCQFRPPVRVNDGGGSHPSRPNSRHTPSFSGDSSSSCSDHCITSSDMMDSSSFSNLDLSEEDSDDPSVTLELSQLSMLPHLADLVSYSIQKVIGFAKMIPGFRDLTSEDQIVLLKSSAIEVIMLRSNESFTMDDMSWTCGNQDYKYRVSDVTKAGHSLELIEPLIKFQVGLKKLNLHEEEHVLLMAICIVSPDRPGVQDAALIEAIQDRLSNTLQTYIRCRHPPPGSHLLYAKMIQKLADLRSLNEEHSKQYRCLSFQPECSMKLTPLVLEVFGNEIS
As to the kind of experiment: VDR agonism by induction of CYP24 gene expression (RT/PCR). Format: cell-based. As to conditions: SCC25 cells; for VDR agonism by induction of CYP24 gene expression: screen at 10 µM, Fig. 1a. Here is the method: Cell culture. Human head and neck squamous carcinoma cell lines SCC4 and SCC45 and mouse HNSCC line AT84 were purchased from American Type Culture Collection (Manassas, VA) and cultured under recommended conditions. Cells were split at 60-70% confluence, as follows: cells were washed with filtered PBS, split with a 5-10 min incubation with 1 ml Trypsin-EDTA (Invitrogen, Carlsbad, CA) in PBS, collected with medium. Following centrifugation, the supernatant was removed. Cell pellets were resuspended with DMEM-F12, and distributed on fresh media-containing dishes. For treatments, AT84 cells were split and 24h later medium was changed to DMEM + 10% charcoal-stripped FBS.
RNA isolation and RT/PCR analysis. […]. Proc. Nat. Acad. Sci. U.S.A. 105, 8250-55. and Lamblin, M.et al Bioorganic & Medicinal Chemistry (2010) 18:4119-4137. After treatment, cells were washed with PBS, homogenized with 1ml TRIzol Reagent (Invitrogen, Carlsbad, CA), kept at room temperature for 2-5 min, collected and kept at -80 °C for at least 1h. After, thawing 0.2 ml chloroform was added. After vigorous mixing and storing for 10min, mixtures were centrifuged (10,000rpm, 15 min, 4 °C) and the upper transparent layer was transferred to a new tube. 0.5 ml isopropanol was added and the new solution was mixed. After centrifuging at 4 °C, the supernatant was discarded and 1ml of 75% ethanol was added. After centrifuging and discarding the supernatant, the pellet was air-dried for 5-10 min, and then dissolved in ddH2O. RNA concentrations were measured using a spectrophotometer, and 1-3µg of RNA were loaded for reverse transcriptase reactions (total volume: 20 µl). 80µl of ddH2O was added to the RT-product, and 1.5µl of that was used as template for the PCR reaction. Reverse transcriptase (Super Script II) was purchased from Invitrogen (Carlsbad, CA). DNA polymerase and dNTP's were ordered from Fermentas (Glen Burnie, MD).
Test compounds (10 µM) were first screened for VDR agonism by analysis of induction of CYP24 gene expression in 1,25D-sensitive human SCC25 cells. […]. Consistent with binding to the VDR, induction of CYP24 by compound JF-B01, compound JF-B53 or compound 16 (JF-B54) was blocked (Fig. 1c). […]

Description for HDAC3: (§1) Fluorogenic HDAC inhibition assay. Boc-Lys(Ac)-7-amino-4-methylcoumarin (Boc-Lys(Ac)-AMC) was used as substrate for the HDAC assays. […] Trypsin was used to stop the reaction, releasing free AMC. The trypsin solution was prepared as follow: trypsin was dissolved in HDAC buffer to give a concentration of 10 mg/mL. Release of AMC was monitored by measuring the fluorescence at 460 nm (lex = 390 nm) with a microplate reader (SpectraMax Gemini) at 37 °C. The AMC signals were recorded against a blank with buffer, substrate and trypsin but without the enzyme. All experiments were carried out at least in triplicate.
(§2) For standard HDAC assays, 50 µL of HDAC buffer was mixed with 10 µL of diluted enzyme solution in HDAC buffer at room temperature. The HDAC reaction was started by adding 40 µL of substrate solution in HDAC buffer followed by 30 min of incubation with stirring at 37 °C. The reaction was stopped by adding 100 µL of trypsin solution. After a 10 min incubation with stirring at 37 °C, the release of AMC was monitored by measuring the fluorescence. For HDAC inhibition assays, inhibitor diluted in 50 µL of HDAC buffer was mixed with 10 µL of diluted enzyme solution in HDAC buffer at room temperature. The HDAC reaction was started by adding 40 µL of substrate solution in HDAC buffer followed by 30 min of incubation with stirring at 37 °C. The reaction was stopped by adding 100 µL of trypsin solution. After a 10 min incubation with stirring at 37 °C, the release of AMC was monitored by measuring the fluorescence.
Description for HDAC6: as §1, §2

By IC50 is commonly meant the concentration at which inhibition is half-maximal. Take `CCC(CC)(c1ccc(OCC(O)C(C)(C)C)c(C)c1)c1cc(C)c(CCC(=O)NO)s1` (stereo not shown) [DK-178, N-hydroxy-3-(5-(3-(4-(2-hydroxy-3,3-dimethylbutoxy)-3-methylphenyl)pentan-3-yl)-3-methylthiophen-2-yl)propanamide]: the 50% inhibitory concentration (IC50) at HDAC6 was determined as 24.9 µM; at HDAC3, 47.3 µM. Further, the antiproliferative potency entry in the test on SCC4 cells is “low micromolar potency”.

As to `CCC(CC)(c1ccc(OCC(=O)NO)c(C)c1)c1cc(C)c(CCC(O)C(C)(C)C)s1` (stereo not shown) [DK-201, N-hydroxy-2-(4-(3-(5-(3-hydroxy-4,4-dimethylpentyl)-4-methylthiophen-2-yl)pentan-3-yl)-2-methylphenoxy)acetamide], the midpoint of inhibition at HDAC3, the IC50, lay at 30.5 µM.

Take `CCC(CC)(c1ccc(OCC(O)C(C)(C)C)c(C)c1)c1cn(C)c2cc(CCC(=O)NO)ccc12` (stereo not shown) [DK-234, N-hydroxy-3-(3-(3-(4-(2-hydroxy-3.3-dimethylbutoxy)-3-methylphenyl)pentan-3-yl)-1-methyl-1H-indol-6-yl)propanamide]: the antiproliferative potency entry with SCC4 cells was “low micromolar potency”.

At HDAC6, `CCC(CC)(c1ccc(OCC(O)CCC(=O)NO)c(C)c1)c1ccc(OCC(O)C(C)(C)C)c(C)c1` (stereo not shown) [DK-305, N,4-dihydroxy-5-(4-(3-(4-(2-hydroxy-3,3-dimethylbutoxy)-3-methylphenyl)pentan-3-yl)-2-methylphenoxy)pentanamide] gave an IC50 of 29.2 µM.

`CCC(CC)(c1ccc(OCCCCCC(=O)NO)c(C)c1)c1ccc(OCC(O)C(C)(C)C)c(C)c1` (stereo not shown) [DK-319, N-hydroxy-6-(4-(3-(4-(2-hydroxy-3,3-dimethylbutoxy)-3-methylphenyl)pentan-3-yl)-2-methylphenoxy)hexanamide] displayed an IC50 against HDAC6 of 2.65 µM.

`CCC(CC)(c1ccc(OCCCCC(=O)NO)c(C)c1)c1ccc(OCC(O)C(C)(C)C)c(C)c1` (stereo not shown) [DK-320, N-hydroxy-5-(4-(3-(4-(2-hydroxy-3,3-dimethylbutoxy)-3-methylphenyl)pentan-3-yl)-2-methylphenoxy)pentanamide] yielded an IC50 at HDAC6 of 5.03 µM.

On HDAC6, `CCC(CC)(c1ccc(OCCCCCCC(=O)NO)c(C)c1)c1ccc(OCC(O)C(C)(C)C)c(C)c1` (stereo not shown) [DK-347, N-hydroxy-7-(4-(3-(4-(2-hydroxy-3,3-dimethylbutoxy)-3-methylphenyl)pentan-3-yl)-2-methylphenoxy)heptanamide] had a concentration for half-maximal inhibition (IC50) of 3.94 µM.

For the compound `CCC(CC)(c1ccc(OCC(O)C(C)(C)C)c(C)c1)c1ccc(C(=O)NCCCCCC(=O)NO)c(C)c1` (stereo not shown) [DK-361, 4-(3-(4-(2-hydroxy-3,3-dimethylbutoxy)-3-methylphenyl)pentan-3-yl)-N-(6-(hydroxyamino)-6-oxohexyl)-2-methylbenzamide], it took 3.4 µM to reach half-maximal inhibition on HDAC6 (IC50).

For the compound `CCC(CC)(c1ccc(OCC(O)C(C)(C)C)c(C)c1)c1ccc(C(=O)NCCCCCCC(=O)NO)c(C)c1` (stereo not shown) [DK-362, 4-(3-(4-(2-hydroxy-3,3-dimethylbutoxy)-3-methylphenyl)pentan-3-yl)-N-(7-(hydroxyamino)-7-oxoheptyl)-2-methylbenzamide], the IC50 on HDAC6 is 1.08 µM.

Turning to `CCC(CC)(c1ccc(OCCCCCC(=O)NO)cc1)c1ccc(OCC(O)C(C)(C)C)c(C)c1` (stereo not shown) [DK-367, N-hydroxy-6-(4-(3-(4-(2-hydroxy-3,3-dimethylbutoxy)-3-methylphenyl)pentan-3-yl)phenoxy)hexanamide], the IC50 at HDAC6 worked out at 1.57 µM. Also, the antiproliferative potency result with SCC4 cells is “low micromolar potency”.

In turn, `CCC(CC)(c1ccc(OCCCCC(=O)NO)cc1)c1ccc(OCC(O)C(C)(C)C)c(C)c1` (stereo not shown) [DK-381, N-hydroxy-5-(4-(3-(4-(2-hydroxy-3,3-dimethylbutoxy)-3-methylphenyl)pentan-3-yl)phenoxy)pentanamide] displayed an IC50 against HDAC6 of 3.13 µM.

At HDAC6, `CCC(CC)(c1ccc(OCCCCC(=O)NO)cc1)c1ccc(OCCC(C)(C)C)c(C)c1` [DK-405, 5-(4-(3-(4-(3,3-dimethylbutoxy)-3-methylphenyl)pentan-3-yl)phenoxy)-N-hydroxypentanamide] gave an IC50 of 1.97 µM.

Consider `CCC(CC)(c1ccc(C(=O)NCCCCCC(=O)NO)cc1)c1ccc(OCC(O)C(C)(C)C)c(C)c1` (stereo not shown) [DK-406, 4-(3-(4-(2-hydroxy-3,3-dimethylbutoxy)-3-methylphenyl)pentan-3-yl)-N-(6-(hydroxyamino)-6-oxohexyl)benzamide], for which it took 0.557 µM to reach half-maximal inhibition against HDAC6 (IC50).

Consider `CCC(CC)(c1ccc(OCC(=O)NO)c(C)c1)c1ccc(OCC(O)CO)c(C)c1` (stereo not shown) [JF-B40], for which the “VDR agonism by induction of CYP24 gene expression” value on VDR is “completely inactive”.

Consider `CCC(CC)(c1ccc(OCCO)c(C)c1)c1ccc(OCC(=O)NO)c(C)c1` [JF-B52, N-Hydroxy-2-(4-(3-(4-(2-hydroxvethoxy)-3-methylphenyl)pentan-3-yl)-2-methylphenoxy)acetamide], for which the “VDR agonism by induction of CYP24 gene expression” value on VDR was “completely inactive”.

Take `CCC(CC)(c1ccc(OCC(=O)NO)c(C)c1)c1ccc(OCC(=O)C(C)(C)C)c(C)c1` [JF-B59, 2-(4-(3-(4-(3,3-dimethyl-2-oxobutoxy)-3-methylphenyl)pentan-3-yl)-2-methylphenoxy)-N-hydroxyacetamide]: on VDR (Fig. 1b), the “VDR agonist potency, fold lower compared to JF-B01” value was over 10 fold.

With `CCC(CC)(c1ccc(OCCCC(=O)NO)c(C)c1)c1ccc(OC[C@H](O)C(C)(C)C)c(C)c1` [JFD-15], the figures for the IC50 against HDAC6 and on HDAC3 were 47.1 µM and 9.83 µM, respectively. For the same compound, the antiproliferative potency result with SCC4 cells is reported as “low micromolar potency”.

With `CCC(CC)(c1ccc(CCC(=O)NO)c(C)c1)c1ccc(OC[C@H](O)C(C)(C)C)c(C)c1` [JFD-50], the IC50 against HDAC6 was 36.1 µM; at HDAC3 it was 45.1 µM. Further, the antiproliferative potency entry in the test on SCC4 cells is recorded as “low micromolar potency”.

Source of the values: EP2794556B1, “BIS-(ARYL/HETEROARYL)-METHYLENE COMPOUNDS, PHARMACEUTICAL COMPOSITIONS CONTAINING SAME AND THEIR USE FOR TREATING CANCER” (Gleason, James L., priority 2011, dated 2013).
